Laboratory results from US5693628A, “11-benzaldoxime-estra-diene derivatives, methods for their production and pharmaceuticals containing these compounds” (priority 1994, dated 1997).

Tests used:
oestrogen receptor = target: T1, oestrogen receptor (Oryctolagus cuniculus, UniProt G1SML6); experiment: relative molar bonding affinity to oestrogen receptor (competitive bonding); type: binding; details: estradiol = 100%; uterine cytosol of immature rabbit; 3H-ethinyl estradiol, 3 nM; 18 h, 0-4° C.
T1 construct: uterine cytosol of the immature rabbit; from tissue; host or cells: uterus (cytosol) of immature rabbit
T1 sequence (G1SML6 1-598): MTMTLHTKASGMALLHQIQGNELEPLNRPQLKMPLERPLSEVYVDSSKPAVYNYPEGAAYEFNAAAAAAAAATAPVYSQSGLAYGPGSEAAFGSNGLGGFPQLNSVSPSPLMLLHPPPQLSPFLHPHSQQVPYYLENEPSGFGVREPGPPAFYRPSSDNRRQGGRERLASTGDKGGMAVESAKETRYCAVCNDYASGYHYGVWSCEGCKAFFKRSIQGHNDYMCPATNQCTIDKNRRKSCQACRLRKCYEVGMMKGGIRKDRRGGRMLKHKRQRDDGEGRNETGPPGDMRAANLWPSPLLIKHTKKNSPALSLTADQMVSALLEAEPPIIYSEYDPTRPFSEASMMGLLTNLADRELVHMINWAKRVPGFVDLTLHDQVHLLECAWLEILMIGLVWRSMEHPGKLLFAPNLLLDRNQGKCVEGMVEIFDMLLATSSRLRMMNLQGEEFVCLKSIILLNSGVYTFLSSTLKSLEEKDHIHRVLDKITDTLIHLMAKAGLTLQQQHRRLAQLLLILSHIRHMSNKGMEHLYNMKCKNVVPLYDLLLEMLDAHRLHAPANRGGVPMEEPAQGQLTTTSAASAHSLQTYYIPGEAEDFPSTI
Method: Measurement of bonding affinity for receptors
Receptor bonding affinity was determined by competitive bonding of a specifically binding ^3 H labelled hormone (tracer) and the compound to be tested to receptors in the cytosol from animal target organs. It was tried to obtain receptor saturation and a balanced reaction. The following incubation conditions were selected:
Oestrogen receptor: uterine cytosol of the immature rabbit, kept at -30° C. in TED buffer with 250 mM of saccharose. Tracer: ^3 H-ethinyl estradiol, 3 nM; reference substance: 17β-estradiol.
After an incubation period of 18 hours at 0°-4° C., bonded and free steroid was separated by mixing in active carbon/dextrane (1%/0.1%), centrifuging off and measuring the bonded ^3 H activity in the supernatant.
The IC50 for the compound to be tested and for the reference substance were determined from measurements in series of concentrations. The quotient of both values (×100%) is the relative molar bonding affinity.

[1] = test system: early gravidity in the rat; experiment: Early abortive effect / inhibition of early gravidity in the rat; type: in vivo; details: for complete gravidity inhibition % / complete gravidity inhibition N*/N (females not pregnant/inseminated females): empty uteri
Method: Inhibition of early gravidity in the rat
Female rats are mated in the pro-oestrus. If semen is found in the vaginal smear on the next day, this day is counted as day 1 (=d1) of the gravidity. Treatment with the test substance or vehicle is applied on d5-d7, autopsy is carried out on d9. The substances are injected subcutaneously in 0.2 ml of vehicle (benzyl benzoate/castor oil 1+4).

[2] = test system: ZR75/AGP-763 human mammary cell line (CAT induction); experiment: Antiglucocorticoid effect: inhibition of dexamethasone-induced CAT in ZR75/AGP-763 cells; type: cell-based; details: ZR 75/AGP-763; 10^-7 M dexamethasone; wide range of concentrations
Source text: (§1) FIG. 2. is a graph showing the antiglucocorticoid effect of J 867 (Example 1) in comparison to RU 486. The graph depicts the inhibition of CAT induction in a human mammary cell line (the ZR75/AGP-763 cell line) which were induced by 10^-7 M dexamethasone. The graph indicates the log molar antagonist concentration in the x-axis versus the maximum CAT induction as a percentage in the y-axis. The results for dexamethasone is shown as dashed lines (- - -), the IC50 is shown in solid line (----), RU 486 is shown as open boxes (.quadrature.), and J 867 is shown with closed boxes (.box-solid.).
FIG. 2 depicts the antiglucocorticoid effect produced by J 867 in the ZR 75/AGP-763 line of human mammary cells compared with that of RU 486.
In this cell line, dexamthasone induces the chloroamphenicol acetyl transferase gene (CAT). This induction is inhibited by antiglucocorticoid substances.
Antiglucocorticoid effect of J867 in the ZR75/AGP-763 line of human mammary cells
The cell culture experiments were carried out in RPMI 1640 added with 10% foetal calf serum (FCS) using an incubator cabinet containing 95% air and 5% CO2 at 37° C. The cells were spread in 60 mm Petri dishes. […] CAT was determined using a Boehringer ELISA according to the instructions for quantitative CAT determination of transfected cells.

[3] = test system: H4-IIE rat hepatoma cell line (TAT induction); experiment: Antiglucocorticoid effect: inhibition of dexamethasone-induced TAT in rat hepatoma cells; type: cell-based; details: hepatomatous cells of rats; 10^-8 M dexamethasone
Source text: as §1, with “3.” for “2.”, “TAT” for “CAT”, “rat hepatoma” for “human mammary”, “H4-IIE” for “ZR75/AGP-763”, “10^-8” for “10^-7”
FIG. 3 compares the antiglucocorticoid effect of J 867 and RU 486 on hepatomatous cells of rats using the TAT model.
In hepatomatous cells of rats, dexamethasone stimulates the tyrosine amino transferase enzyme (TAT). This effect is inhibited by antiglucocorticoid activity.
Antiglucocorticoid effect of J867 in hepatomatous cells of rats using the TAT model
The cell cultures were treated in DMEM under essentially the same conditions as in Example 14. The cells were spread over 24 well plates for the experiments. Substance was added to the confluent hepatomatous cells in 0.2% (v/v) ethanol for 16 hours. After the cells were carefully harvested using a scraper and a cell extract obtained using ultrasonic waves, TAT was determined according to Diamondstone.

[4] = 0.3 mg/animal/day s.c., 5th to 7th day of pregnancy
[5] = 1.0 mg/animal/day s.c., 5th to 7th day of pregnancy
[6] = 3.0 mg/animal/day s.c., 5th to 7th day of pregnancy

relative molar bonding affinity (RBA) to oestrogen rec. (oestrogen receptor): < 0.1%
SMILES: COC[C@]1(OC)CC[C@H]2[C@@H]3CCC4=CC(=O)CCC4=C3[C@@H](c3ccc(C=NO)cc3)C[C@@]21C [Example 1, 11β-[4-(hydroximinomethyl)phenyl]-17β-methoxy-17α-methoxymethyl-estra-4,9-diene-3-on]
complete gravidity inhibition % [1, 4]: 0%
complete gravidity inhibition N*/N (females not pregnant/inseminated females) [1, 4]: 0/5
complete gravidity inhibition % [1, 5]: 100%
complete gravidity inhibition N*/N (females not pregnant/inseminated females) [1, 5]: 5/5
complete gravidity inhibition % [1, 6]: 100%
complete gravidity inhibition N*/N (females not pregnant/inseminated females) [1, 6]: 5/5
ED 50 ([1]; s.c., 5th to 7th day of pregnancy, graphic determination): 0.6 mg/animal/day
inhibition capability of nidation as compared to RU 486 (factor) ([1]; s.c., d5-d7, autopsy d9, factor compared to RU 486): 3
inhibition of CAT compared with RU 486 [2]: inhibits CAT over a wide range of concentrations to a lesser extent than RU 486
antiglucocorticoid effect (TAT) compared with RU 486 [3]: clearly weaker antiglucocorticoid effect than RU 486
